In the supplement of paper PMC10307832:

Assays:
Assay in all cases: relative viability (nuclei count vs DMSO), 5 days (fraction); higher = more cells survive
[1] = test system: NCI-H1755
Outline: (§1)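 Lung cancer cell lines, seeded in 1536-well plates, were treated the following day by pin tool with a single drug or with five library-drug doses (not always all listed) in √10 steps on top of a fixed anchor-drug dose. Cells were fixed and nuclei stained in one step after 5 days, and nuclei were counted. Relative viability is the nuclei count for treated wells divided by that for vehicle wells, reported as medians of duplicate plates.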

[2] = test system: SK-LU-1
Outline: as §1

[3] = test system: 201T
Outline: as §1

[4] = test system: LU99A
Outline: as §1

[5] = test system: EKVX
Outline: as §1

[6] = test system: COR-L23
Outline: as §1

[7] = test system: LC-2-ad
Outline: as §1

[8] = test system: NCI-H596
Outline: as §1

[9] = test system: HCC-366
Outline: as §1

[10] = test system: NCI-H3122
Outline: as §1

[11] = test system: BEN
Outline: as §1

[12] = test system: LXF-289
Outline: as §1

[13] = test system: NCI-H1650
Outline: as §1

[14] = test system: RERF-LC-KJ
Outline: as §1

[15] = test system: HCC-78
Outline: as §1

[16] = test system: HCC-15
Outline: as §1

[17] = test system: NCI-H1944
Outline: as §1

[18] = test system: NCI-H1734
Outline: as §1

[19] = test system: HARA
Outline: as §1

[20] = test system: NCI-H1993
Outline: as §1

[21] = test system: HCC-827
Outline: as §1

[22] = test system: NCI-H1975
Outline: as §1

[23] = test system: COR-L 105
Outline: as §1

`O=c1[nH]c2ccccc2n1C1CCN(CCCC(c2ccc(F)cc2)c2ccc(F)cc2)CC1` [Pimozide] + Cc1cc(Nc2cc(N3CCN(C)CC3)nc(Sc3ccc(NC(=O)C4CC4)cc3)n2)n[nH]1 [Tozasertib] (partner 0.1 µM) gave a relative viability ([1]; first compound 0.08 µM) of 0.562, a relative viability ([1]; first compound 0.253 µM) of 0.58 and a relative viability ([1]; first compound 0.8 µM) of 0.591. For the same molecule, the relative viability ([1]; first compound 2.53 µM) was 0.491, the relative viability ([1]; first compound 8 µM) was 0.57 and the relative viability ([2]; first compound 0.08 µM) was 0.326. The relative viability ([2]; first compound 0.253 µM) was 0.323, the relative viability ([2]; first compound 0.8 µM) was 0.328 and the relative viability ([2]; first compound 2.53 µM) was 0.29. It also gave a relative viability ([2]; first compound 8 µM) of 0.299, a relative viability ([3]; first compound 0.08 µM) of 0.88 and a relative viability ([3]; first compound 0.253 µM) of 0.94. The relative viability ([3]; first compound 0.8 µM) was 0.871, the relative viability ([3]; first compound 2.53 µM) was 0.747 and the relative viability ([3]; first compound 8 µM) was 0.636. The relative viability ([4]; first compound 0.08 µM) was 0.244, the relative viability ([4]; first compound 0.253 µM) was 0.277 and the relative viability ([4]; first compound 0.8 µM) was 0.27. For the same molecule, the relative viability ([4]; first compound 2.53 µM) was 0.304, the relative viability ([4]; first compound 8 µM) was 0.256 and the relative viability ([5]; first compound 0.08 µM) was 0.35. For the same molecule, the relative viability ([5]; first compound 0.253 µM) was 0.321, the relative viability ([5]; first compound 0.8 µM) was 0.36 and the relative viability ([5]; first compound 2.53 µM) was 0.315. For the same molecule, the relative viability ([5]; first compound 8 µM) was 0.388, the relative viability ([6]; first compound 0.08 µM) was 0.194 and the relative viability ([6]; first compound 0.253 µM) was 0.183. For the same molecule, the relative viability ([6]; first compound 0.8 µM) was 0.191, the relative viability ([6]; first compound 2.53 µM) was 0.153 and the relative viability ([6]; first compound 8 µM) was 0.185. It also gave a relative viability ([7]; first compound 0.08 µM) of 0.442, a relative viability ([7]; first compound 0.253 µM) of 0.455 and a relative viability ([7]; first compound 0.8 µM) of 0.416. The relative viability ([7]; first compound 2.53 µM) was 0.385, the relative viability ([7]; first compound 8 µM) was 0.35 and the relative viability ([8]; first compound 0.08 µM) was 0.929. For the same molecule, the relative viability ([8]; first compound 0.253 µM) was 0.959, the relative viability ([8]; first compound 0.8 µM) was 0.893 and the relative viability ([8]; first compound 2.53 µM) was 0.839. It also gave a relative viability ([8]; first compound 8 µM) of 0.882, a relative viability ([9]; first compound 0.08 µM) of 0.079 and a relative viability ([9]; first compound 0.253 µM) of 0.0803. It also gave a relative viability ([9]; first compound 0.8 µM) of 0.142, a relative viability ([9]; first compound 2.53 µM) of 0.0868 and a relative viability ([9]; first compound 8 µM) of 0.0997. It also gave a relative viability ([10]; first compound 0.08 µM) of 0.397, a relative viability ([10]; first compound 0.253 µM) of 0.386 and a relative viability ([10]; first compound 0.8 µM) of 0.353. The relative viability ([10]; first compound 2.53 µM) was 0.216, the relative viability ([10]; first compound 8 µM) was 0.378 and the relative viability ([11]; first compound 0.08 µM) was 0.465. The relative viability ([11]; first compound 0.253 µM) was 0.548, the relative viability ([11]; first compound 0.8 µM) was 0.427 and the relative viability ([11]; first compound 2.53 µM) was 0.471. The relative viability ([11]; first compound 8 µM) was 0.422, the relative viability ([12]; first compound 0.08 µM) was 0.208 and the relative viability ([12]; first compound 0.253 µM) was 0.167. For the same molecule, the relative viability ([12]; first compound 0.8 µM) was 0.173, the relative viability ([12]; first compound 2.53 µM) was 0.14 and the relative viability ([12]; first compound 8 µM) was 0.126. The relative viability ([13]; first compound 0.08 µM) was 0.347, the relative viability ([13]; first compound 0.253 µM) was 0.398 and the relative viability ([13]; first compound 0.8 µM) was 0.475. The relative viability ([13]; first compound 2.53 µM) was 0.331, the relative viability ([13]; first compound 8 µM) was 0.307 and the relative viability ([14]; first compound 0.08 µM) was 0.468. It also gave a relative viability ([14]; first compound 0.253 µM) of 0.447, a relative viability ([14]; first compound 0.8 µM) of 0.452 and a relative viability ([14]; first compound 2.53 µM) of 0.202. For the same molecule, the relative viability ([14]; first compound 8 µM) was 0.248, the relative viability ([15]; first compound 0.08 µM) was 0.336 and the relative viability ([15]; first compound 0.8 µM) was 0.319. The relative viability ([15]; first compound 2.53 µM) was 0.371, the relative viability ([15]; first compound 8 µM) was 0.327 and the relative viability ([16]; first compound 0.08 µM) was 0.403. For the same molecule, the relative viability ([16]; first compound 0.253 µM) was 0.365, the relative viability ([16]; first compound 0.8 µM) was 0.322 and the relative viability ([16]; first compound 2.53 µM) was 0.292. For the same molecule, the relative viability ([16]; first compound 8 µM) was 0.201, the relative viability ([17]; first compound 0.08 µM) was 0.251 and the relative viability ([17]; first compound 0.253 µM) was 0.241. The relative viability ([17]; first compound 0.8 µM) was 0.242, the relative viability ([17]; first compound 2.53 µM) was 0.217 and the relative viability ([17]; first compound 8 µM) was 0.23. For the same molecule, the relative viability ([18]; first compound 0.08 µM) was 0.277, the relative viability ([18]; first compound 0.253 µM) was 0.289 and the relative viability ([18]; first compound 2.53 µM) was 0.255. For the same molecule, the relative viability ([18]; first compound 8 µM) was 0.271, the relative viability ([19]; first compound 0.253 µM) was 0.107 and the relative viability ([19]; first compound 0.8 µM) was 0.111. It also gave a relative viability ([19]; first compound 2.53 µM) of 0.0907, a relative viability ([19]; first compound 8 µM) of 0.123 and a relative viability ([20]; first compound 0.08 µM) of 0.555. It also gave a relative viability ([20]; first compound 0.253 µM) of 0.567, a relative viability ([20]; first compound 0.8 µM) of 0.612 and a relative viability ([20]; first compound 2.53 µM) of 0.568. For the same molecule, the relative viability ([20]; first compound 8 µM) was 0.58, the relative viability ([21]; first compound 0.253 µM) was 0.387 and the relative viability ([21]; first compound 0.8 µM) was 0.368. It also gave a relative viability ([21]; first compound 2.53 µM) of 0.385, a relative viability ([21]; first compound 8 µM) of 0.405 and a relative viability ([22]; first compound 0.08 µM) of 0.766. It also gave a relative viability ([22]; first compound 0.253 µM) of 0.67, a relative viability ([22]; first compound 0.8 µM) of 0.717 and a relative viability ([22]; first compound 2.53 µM) of 0.618. For the same molecule, the relative viability ([22]; first compound 8 µM) was 0.714, the relative viability ([23]; first compound 0.253 µM) was 0.327 and the relative viability ([23]; first compound 0.8 µM) was 0.367. The relative viability ([23]; first compound 2.53 µM) was 0.301 and the relative viability ([23]; first compound 8 µM) was 0.239.
